Consider one compound from patent US11779602B2, “Methods of use for CAR T cells” (ENDOCYTE, INC., priority 2018, dated 2023).

This assay concerns FR+ (KB, MDA-MB-231, HOS-FRα^fLuc, THP1-FRβ) tumor cell lines. The assay can be described thus: CAR-T cell exhaustion markers and target cell apoptosis in co-culture with EC17-preloaded targets. Particulars: EC17 pre-loading 0.1 or 10 nM, E/T 1:2, day 2. In kind it is cell-based, human. The method, then: To study CAR-T cell activation in the presence of FR+ tumor cell targets (FIGS. 53A-D), co-culture experiments were initially carried out with MDA-MB-231, THP1-FRβ and HOS-FRα. […] After 24 hours of co-culture, the surface expression of T cell activation markers CD69, CD137 (4-1BB), and PD1 were analyzed by flow cytometry. For T cell exhaustion studies (FIGS. 54A-C), FR+ (KB, MDA-MB-231, HOS-FRα^fLuc, THP1-FRβ) and FR-negative (HOS-143b^fLuc, THP1-FG12) tumor cell lines were used as targets. Here, target cells were incubated on day 0 without or with 0.1 and 10 nM of EC17 for 30 min at 37° C. and the status of EC17 “pre-loading” was assessed by counterstaining cell-surface EC17 with an anti-FITC antibody (FIG. 61A). Three days later, the surface expression of PD1, LAG3, and TIM3 inhibitor receptors on co-cultured CAR-T cells were analyzed and higher frequencies of double- and triple-positive cells were considered approaching an exhausted phenotype.
To examine antigen-dependent CAR-T cell activation, MDA-MB-231, THP1-FRβ and HOS-FRα cells were preloaded with 100 nM EC17 over 30 min. […] After 24 hours of co-culture, we measured the surface expression of T cell activation markers CD69, CD137 (4-1BB) and PD1 (FIGS. 53A-D). […] Three days later, co-cultured CAR-T cells were measured for upregulation and co-expression of T cell activation/exhaustion markers PD1, LAGS and TIM3. […]

As for `NC1=NC2N=CC(CNc3ccc(C(=O)N[C@@H](CCC(=O)NCCNC(=S)Nc4ccc(-c5c6ccc(=O)cc-6oc6cc(O)ccc56)c(C(=O)O)c4)C(=O)O)cc3)=NC2C(=O)N1` (stereo partly shown) [EC17, FA-(γ)-ethylenediamine-FITC], the “target cell apoptosis (Annexin V+)” value is “dose-dependent apoptosis (Annexin V+) was seen in all FR+ tumor cell lines”.
